In data set [1] the test system is TC-1 cells. Kind of data set: Vaccination combined with cisplatin chemotherapy, TC-1 tumors. It counts as in vivo, C57BL/6 mice. The note with it: cisplatin 5 mg/kg i.v. three times, vaccine s.c. three times, with high dose tumor re-challenge, n=10. On the procedure: To detect the LN targeting deliver y of pol ypeptide antigens by micelle, C57BL/6 mice were subcutaneousl y injected with 14.6 nmol different formulations of RhB labeled E7 peptide (E7, Pal-E7 and M-E7) at tail base. The DLNs were ex cised and digested into single cell suspension at 24h post-injection, the RhB+ DCs and Macrophages cells wer e detected b y flo w c ytom etr y.
Vaccination combined with cisplatin chemotherapy
C57BL/6 mice were inoculated subcutaneousl y with 5×10^4 TC-1 tumor cells. Two weeks later when the tumor volume reached 100 mm3 (day 0), tumor -bearing mice were treated with cisplatin (5mg/kg bod y weight) intravenousl y for three times at 5 days interval. On the same day of the last chemotherap y, mice were vaccinated subcutaneousl y with micelle vaccine or normal saline (NS) for three times at 7da ys interval. Tumor growth and tumor free rate was monitored twice per week.
Vaccination co mbined w ith surgical operation
C57BL/6 mice were injected subcutaneousl y on the right flank with 5×10^4 TC-1 tumor cells. One month later when the volume of tumor reached 1000mm 3 (day 0), mice were anesthetized and full resection was executed by excising the tumor using standard blunt dissection. Sterile silk sutures were used to close wounds.
Accompanied b y wound closure, mice were vaccinated subcutaneousl y with micelle vaccine or NS for three times at 7 days interval. […]

Data set [2] is described as follows: In vivo imaging (IVIS) of lymphatic trafficking. Particulars: subcutaneous at tail base, 15 μmol FITC, 0 to 168 h. Also noted: species or system C57BL/6 mice. The text has this: C57BL/6 mice were subcutaneously injected with 15 μmol (FITC) of different FITC-labeled formulations (FITC, F-L, F-M) at tail base. The diffusion from injection sites was detected using an in vivo imaging system (IVIS) (Caliper life Sciences, Hopkinton, MA, USA). Spectrum unmixing technique was applied to reducing the effect of native tissue auto-fluorescence, separating detecting fluorescence and analyzing fluorescence diffusion. For imaging on inguinal and axillary LNs, LNs were excised and imaged at indicated time points. An image set (Ex: 500, Em: 540, f4, bin 8, 2 s) was collected. Living Image software Version 4.4 (Caliper Life Sciences, Waltham, MA, USA) was used to acquire and quantify the fluorescence imaging data sets.

Data set [3] deals with DC2.4 cells. In words: Confocal imaging of intracellular localisation of RhB-labeled peptides. In kind it is cell-based, mouse (C57BL/6). The note with it: 20 μM RhB-labeled peptide, 37 °C, 30 min (legend; text says 2 h), LysoTracker Green or EGFP-Rab5, confocal, three independent experiments. On the procedure: DC2.4 cells or EGFP-Rab5 expressing DC2.4 cells were seeded in 35 mm glass-bottom plates. After overnight culture, different formulations of indicated Rhodamine-labeled peptides (20 μM) were added and incubated at 37 °C for 30 min or 2 h. Then, 100 nM Lyso-Tracker Green or ER-Tracker Green (Life Technologies, Grand Island, NY, USA) was added and incubated for 5 or 20 min, respectively. The processes of PEG-PE inserting into cell membranes, peptide internalization and the co-localization of peptides with early endosome (Rab5), lysosome or ER were imaged using a confocal microscope LSM-700 (ZEISS, Germany).
TC-1, a tumor cell line transformed from C57BL/6 primar y mouse lung cells, was kindly provided b y Dr. Xuemei Xu (Institute of Basic Medical Sciences Chinese Academ y of Medical Sciences & School of Basic Medicine, Peking Union Medical College, Beijing, China). DC2.4, an immortalized DC cell line derived from C57BL/6 mice, was kindl y provided by Dr. Li Tang (Ke y Laborator y of Protein Engineering, Academ y of Military Medical Sciences, Beijing, China). RAW 264.7, a macrophage like cell line derived from BALB/c mice, was purchased from the Type Culture Collection of the Chinese Academ y of Sciences (Shanghai, China). MC38 is a murine colon adenocarcinoma cell line. MC38- OVA was sorted and subcloned after MC38 cells were stable transduced with retrovirus expressing mouse […]–O T I.
B16-F10 murine melanoma cell line was originally obtained from ATCC, catalog no.
CRL-6475. All cells were cultured in complete RPMI1640 medium according to […]
Preparation of PE G-PE micellized antigenic peptides
Briefl y, peptides (HPV16 E7 43-62 , O VA 250-264 , sCT) or Rhodamine labeled peptides (RhB-peptide) were dissolved in methanol, respectivel y. Then the three peptides were respectively mixed with corresponding amount PEG 2000 -PE or FITC labeled PEG 2000 -PE(FITC-PP) which was dissolved in chloroform in a 1/10 molar ratio of peptide/PEG-PE. Then the peptide containing micelle were prepared as described in […]

The target of data set [4] is T1, TLR4 (Mus musculus, UniProt Q9JHF9+Q9QUK6).
T1 construct: endogenous in cells; host or cells: RAW264.7 (mouse macrophage-like cell line)
T1 sequence (Q9JHF9 19-160): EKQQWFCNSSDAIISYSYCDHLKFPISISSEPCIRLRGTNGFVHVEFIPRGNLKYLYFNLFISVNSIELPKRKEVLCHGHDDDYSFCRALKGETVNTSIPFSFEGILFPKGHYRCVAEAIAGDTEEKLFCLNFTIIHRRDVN
T1 sequence (Q9QUK6 26-835): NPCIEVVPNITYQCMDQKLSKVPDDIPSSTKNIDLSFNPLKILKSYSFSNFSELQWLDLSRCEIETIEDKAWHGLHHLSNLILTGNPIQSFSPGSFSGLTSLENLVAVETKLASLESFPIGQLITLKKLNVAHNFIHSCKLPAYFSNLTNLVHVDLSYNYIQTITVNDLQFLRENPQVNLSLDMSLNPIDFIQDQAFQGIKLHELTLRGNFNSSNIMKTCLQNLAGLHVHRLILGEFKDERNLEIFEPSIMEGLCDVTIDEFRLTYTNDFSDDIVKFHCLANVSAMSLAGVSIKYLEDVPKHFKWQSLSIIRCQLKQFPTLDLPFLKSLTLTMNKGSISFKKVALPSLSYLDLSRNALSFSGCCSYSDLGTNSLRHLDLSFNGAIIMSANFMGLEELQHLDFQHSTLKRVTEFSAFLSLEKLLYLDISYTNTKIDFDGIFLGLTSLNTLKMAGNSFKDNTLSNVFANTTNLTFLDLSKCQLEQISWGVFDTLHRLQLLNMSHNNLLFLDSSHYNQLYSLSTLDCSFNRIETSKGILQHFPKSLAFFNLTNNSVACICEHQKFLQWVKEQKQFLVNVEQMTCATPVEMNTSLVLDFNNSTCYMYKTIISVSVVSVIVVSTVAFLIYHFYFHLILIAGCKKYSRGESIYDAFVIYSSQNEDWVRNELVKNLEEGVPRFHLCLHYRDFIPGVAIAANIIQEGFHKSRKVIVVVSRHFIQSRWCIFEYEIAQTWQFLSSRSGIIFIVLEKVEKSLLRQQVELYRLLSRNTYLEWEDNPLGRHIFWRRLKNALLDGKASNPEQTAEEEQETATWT
Kind of data set: MPLA activity assay (TNF-α ELISA). It counts as cell-based, mouse (RAW264.7 cells). The note with it: RAW264.7 cells, 2 h, mean±s.d. n=4. On the procedure:
(§1) 0.5 mg/ml with deionized water. Particle sizes were shown as intensity-w eight ed diameters. The values were repo rted as the mean ± standard deviation (SD) based on more than three individual measurements performed in triplicate.
(§2) […] RAW264.7 cells were seeded in 24-well plates overnight. Then, the cells were treated with 10, 100, 1000ng/ml MPLA, M-MPLA, Lipo/MPLA, PLA/MPLA, or PEG 2000 -DPG (1,2-dipalmitate-sn-gl yc e r o -3- O-[(polyethylene glycol)-2000]) micellized MPLA (DP-M-MP LA), PEG 2000 -L-DPG (1,2-dipalmitate-sn-gl yc e r o -3-(6-amido-2-aminohexanoyl ox y)-N-[(polyethylene glycol)-2000]) micellized MPLA (N-M-MPLA), respectively for 2 h prior to harvesting the supernatant. TLR4 activation was measured by the cumulative production of TNF-α using the mouse TNF-α ELISA kit (eBios cience, San Diego, CA, USA).
(§3) M-MPL A activity assay in serum f ree mediu m or under LBP-blocking condition RAW264.7 cells were seeded and cultured overnight. Then the cells were either treated (1) with s erum-free medium (S FM) or (2) with LBP-blocking pepti de. (1): The cells were washed with SFM three times before experiment, then treated with 100ng/ml MP LA, M-MP LA, or LPS in the p resen ce o r abs ence of serum respectivel y; (2):The cells were treated with or without LBPK95A (LBPK95A sequence:
(§4) added and incubated for 2h prior to harvesting the supernatant. TLR4 activation was […]
(ELISA stands for enzyme-linked immunosorbent assay.)

Data set [5] has as its target T1, TLR4. Kind of data set: M-MPLA activity assay in serum free medium or under LBP-blocking condition. It counts as cell-based, mouse (RAW264.7 cells). The note with it: RAW264.7 cells, 2 h, serum-free medium or 100 μg/ml LBPK95A, ELISA. On the procedure: as §1, §2, §3, §4
The conditions of data set [6]: cited from earlier work. The text has this:
Both MPLA and LPS have very low critical micelle concentration to tend to form the micelle at 10^−9 mol concentration. Only their monomers can bind to the TLR4/MD-2 heterodimers, and after binding, two TLR4/MD-2 heterodimers form the TLR4/MD-2 heterotetramers for signaling transduction. As a chaperon, LBP in serum can induce disassembly of MPLA and LPS, and then transfer them with CD14 to their receptors (Supplementary Figure S3A; [36]). […] However, as a detoxic form of LPS, the adjuvant activity is also attenuated. […] One reason of PEG-PE micelles accounting for these may be its monomerization of MPLA. MPLA, as well as LPS, has very low critical micelle concentration (~10^−9 M), thus are usually present as aggregates [[32], ...

In data set [7] the target is T2, TLR4/MD-2 (Mus musculus, UniProt Q9JHF9+Q9QUK6).
T2 construct: endogenous in cells; host or cells: RAW264.7 (mouse macrophage-like cell line)
T2 sequence (Q9JHF9 19-160): as the sequence (Q9JHF9 19-160) above
T2 sequence (Q9QUK6 26-835): as the sequence (Q9QUK6 26-835) above
In words: TLR4/MD-2 heterotetramer formation detection (MTS510 staining). Particulars: RAW264.7 cells, 100 ng/ml, 15 min, 37 °C, flow cytometry. It counts as cell-based, mouse (RAW264.7 cells). On the procedure:
measured as describ ed ab ove.
TLR4/MD-2 heterotetramer forma tion detecti on RAW264.7 cells were stimulated with 100ng/ml MPLA, M+MPLA, M -MPLA, or LPS for 15min at 37℃. Then the treated cells were put on ice and washed with PBS.
After blocking with anti- FcγR mAb (2.4G2), the cells were incubated with one of the following antibodies: MTS510 PE, Rat IgG2a K isotype control PE. Finally, the cells were anal yz ed b y flow cyt ometr y (Calibur, BD Bioscience).
Bone marrow dendritic cells (BMDC) g enera tion
BMDCs are generated as described previously 2. Briefly, bone marrow (BM) cells were collected from tibias and femurs of female C57BL/6 mice. At da y 0, 2×10^6 BM cells were cultured in 100mm plate with 10ml complete RPMI 1640 medium containing 200 U/ml rmGM-CSF (PeproTech, Rocky Hill, NJ). At day 3, another 10 ml RPMI 1640 medium containing 200U/ml rmGM-CSF were added. At day 6, the immature BMDCs were collected and read y to us e.
BMDCs or splenocytes from C57BL/6 mice were seeded in 96-well plates and cultured in the presence of 100 ng/ml different MPLA formulations (MPLA, M+MP LA, M- MPLA), or 10 μg empt y PEG -PE micelle. For RNA detection, BMDCs were collected 1h after stimulation. For protein detection, the supernatants were […]
On the technique in general: Flow cytometry measures light scatter and fluorescence of single cells or particles in a stream.

A short description of data set [8]: Circular dichroism (CD) spectroscopy of secondary structure. It counts as physicochemical. Particulars: free peptide or PEG-PE micellized peptide. In general terms: Circular dichroism is the unequal absorption of left and right circularly polarised light.

Here are results for 7 compounds from paper PMC5379745, “Coordinating antigen cytosolic delivery and danger signaling to program potent cross-priming by micelle-based nanovaccine” (Cell Discovery, 2017).

As for `N.N.[Cl][Pt][Cl]` [cisplatin], in data set [1], the “Mice remaining tumor-free at 3 months after treatment” value is on record as “none”.
In the case of Fluorescein isothiocyanate [FITC], in data set [2], the “Diffusion from the injection site” value was “mostly stayed and largely retained around the injection sites even 7 days post injection”.
For the compound “GQAEPDRAHYNIVTFCCKCD [E7, HPV16 E7_43-62 antigenic peptide, RhB-labeled for imaging]”, in data set [3], the “Intracellular location of RhB-labeled peptide relative to lysosomes / endosomes” value is “contained within lysosomes”.
Turning to Monophosphoryl lipid A [MPLA], in data set [4], the “MPLA concentration generating a comparable level of TNF-α” value is on record as 1 000 ng ml^−1. Besides, the “TNF-α secretion in serum-free medium (without LBP) or with LBP-blocking peptide” value in data set [5] is “could not efficiently stimulate macrophage to secret TNF-α”. Moreover, in data set [6], the Critical micelle concentration is ~ 10^−9 M and the “Critical micelle concentration (concentration at which micelles tend to form)” value is recorded as 10^−9 mol.
For the compound “SGLEQLESIINFEKL [OVA peptide, OVA250-264 antigenic peptide]”, the “Intracellular location of RhB-labeled peptide relative to lysosomes / endosomes” value in data set [3] is given as “largely outside lysosomes”.
Regarding lipopolysaccharide [LPS], in data set [5], the “TNF-α secretion in serum-free medium (without LBP) or with LBP-blocking peptide” value is given as “could not efficiently stimulate macrophage to secret TNF-α”. The “MTS510 mAb reactive surface TLR4/MD-2 complex” value in data set [7] is recorded as “dramatically downregulated MTS510 mAb reactive surface TLR4/MD-2 complex”. In data set [6], the Critical micelle concentration is on record as ~ 10^−9 M and the “Critical micelle concentration (concentration at which micelles tend to form)” value is on record as 10^−9 mol.
With salmon calcitonin [sCT], the “Intracellular location of RhB-labeled peptide relative to lysosomes / endosomes” value in data set [3] is on record as “contained within lysosomes”. Further, the “Secondary structure by CD spectroscopy” value in data set [8] is “non-α-helical peptides”.
